Data published in US10800791B2, “Triazole ACC inhibitors and uses thereof” (Gilead Apollo, LLC, priority 2015, dated 2020).
Converted amounts (≈) assume the structure as drawn.

Columns and labels:
[1] = system: ACC2; settings: ACC2 isolated from rat, mouse, monkey and human; cited from earlier work
[2] = system: ACC1; settings: ACC1 isolated from rat, mouse, monkey and human; cited from earlier work
[3] = system: C. krusei; assay: Antifungal Activity Assay (broth microtiter MIC), C. krusei; type: cell-based, Candida krusei; settings: Pichia kudriavzevii, ATCC6258, 48 h, Table 3b (additional results); ATCC 6258; 3 replicates; MIC recorded at 48 h; read-out: MIC, C. krusei ATCC 6258
Outline: (§1)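 Susceptibility was determined by CLSI M27-A3 broth microdilution in RPMI 1640 buffered with MOPS. Growth inhibition was scored visually after 48 h.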

[4] = system: Collectotrichum graminicola (Cg); assay: Growth inhibition assay of fungal pathogens, Cg; type: cell-based; settings: 48 h, Collectotrichum graminicola; growth inhibition at 48 hours vs 2% DMSO control; read-out: Concentration at 90% Inhibition Cg
Outline: (§2)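 Percent inhibition derived at 48 hours from OD600 and visual scores versus 2% DMSO control, with media+DMSO blank as background. Spore inocula in 17% V8 medium were sized from 48 h growth curves; compounds tested at final 50/10/2 or 2/0.4/0.08 ppm.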

[5] = system: Diplodia maydis (Dm); assay: Growth inhibition assay of fungal pathogens, Dm; type: cell-based; settings: Stenocarpella maydis, 48 h, Diplodia maydis; growth inhibition at 48 hours vs 2% DMSO control; read-out: Concentration at 90% Inhibition Dm
Outline: as §2

[6] = system: Fusarium virguliforme (Fv); assay: Growth inhibition assay of fungal pathogens, Fv; type: cell-based; settings: 48 h, growth inhibition at 48 hours vs 2% DMSO control, read-out: Concentration at 90% Inhibition Fv
Outline: as §2

[7] = system: Fusarium moniliforme (Fm); assay: Growth inhibition assay of fungal pathogens, Fm; type: cell-based; settings: Fusarium verticillioides, 48 h, Fusarium moniliforme; growth inhibition at 48 hours vs 2% DMSO control; read-out: Concentration at 90% Inhibition Fm
Outline: as §2

[8] = system: C. albicans; assay: Antifungal Activity Assay (broth microtiter MIC), C. albicans; type: cell-based, Candida albicans; settings: Candida albicans, ATCC90028, 48 h, Table 3b (additional results); ATCC 90028; 3 replicates; MIC recorded at 48 h; read-out: MIC, C. albicans ATCC 90028
Outline: as §1

[9] = system: Phytophthora capsici (Pc); assay: Growth inhibition assay of fungal pathogens, Pc; type: cell-based; settings: 48 h, growth inhibition at 48 hours vs 2% DMSO control, read-out: Concentration at 90% Inhibition Pc
Outline: as §2

[10] = system: Rhizoctonia solani (Rs); assay: Growth inhibition assay of fungal pathogens, Rs; type: cell-based; settings: 48 h, mycelial plugs, growth inhibition at 48 hours vs 2% DMSO control, read-out: Concentration at 90% Inhibition Rs
[11] = biological target: human (hACC2) (Homo sapiens, UniProt O00763); assay: In vitro ACC inhibition assay (ADP-Glo), hACC2; type: biochemical; settings: Table 2b, additional results, 5 nM ACC2, 20 μM ATP, 20 μM acetyl-CoA
Description: The detailed procedure is as follows. […] 10 μL ADP glo reagent was added. […] 20 μL kinase detection reagent was added.

[12] = system: Botrtyis cinerea (Bc); assay: Growth inhibition assay of fungal pathogens, Bc; type: cell-based; settings: 48 h, Botrtyis cinerea; growth inhibition at 48 hours vs 2% DMSO control; read-out: Concentration at 90% Inhibition Bc
Outline: as §2

[13] = biological target: fungal (fACC2) (UniProt Q00955); settings: read-out: fACC2 (in vitro ACC2 Inhibition Assay, IC50); Table 2b, additional results; ADP-Glo, 5 nM ACC2, 20 μM ATP, 20 μM acetyl-CoA
[14] = system: C. parapsilosis; assay: Antifungal Activity Assay (broth microtiter MIC), C. parapsilosis; type: cell-based, Candida parapsilosis; settings: Lodderomyces parapsilosis, ATCC22019, 48 h, Table 3b (additional results); ATCC 22019; 3 replicates; MIC recorded at 48 h; read-out: MIC, C. parapsilosis ATCC 22019
Outline: as §1

[15] = system: Septoria tritici (St); assay: Growth inhibition assay of fungal pathogens, St; type: cell-based; settings: Zymoseptoria tritici, 48 h, Septoria tritici; growth inhibition at 48 hours vs 2% DMSO control; read-out: Concentration at 90% Inhibition St
Outline: as §2

Sequence of fungal (fACC2) (Q00955 whole entry): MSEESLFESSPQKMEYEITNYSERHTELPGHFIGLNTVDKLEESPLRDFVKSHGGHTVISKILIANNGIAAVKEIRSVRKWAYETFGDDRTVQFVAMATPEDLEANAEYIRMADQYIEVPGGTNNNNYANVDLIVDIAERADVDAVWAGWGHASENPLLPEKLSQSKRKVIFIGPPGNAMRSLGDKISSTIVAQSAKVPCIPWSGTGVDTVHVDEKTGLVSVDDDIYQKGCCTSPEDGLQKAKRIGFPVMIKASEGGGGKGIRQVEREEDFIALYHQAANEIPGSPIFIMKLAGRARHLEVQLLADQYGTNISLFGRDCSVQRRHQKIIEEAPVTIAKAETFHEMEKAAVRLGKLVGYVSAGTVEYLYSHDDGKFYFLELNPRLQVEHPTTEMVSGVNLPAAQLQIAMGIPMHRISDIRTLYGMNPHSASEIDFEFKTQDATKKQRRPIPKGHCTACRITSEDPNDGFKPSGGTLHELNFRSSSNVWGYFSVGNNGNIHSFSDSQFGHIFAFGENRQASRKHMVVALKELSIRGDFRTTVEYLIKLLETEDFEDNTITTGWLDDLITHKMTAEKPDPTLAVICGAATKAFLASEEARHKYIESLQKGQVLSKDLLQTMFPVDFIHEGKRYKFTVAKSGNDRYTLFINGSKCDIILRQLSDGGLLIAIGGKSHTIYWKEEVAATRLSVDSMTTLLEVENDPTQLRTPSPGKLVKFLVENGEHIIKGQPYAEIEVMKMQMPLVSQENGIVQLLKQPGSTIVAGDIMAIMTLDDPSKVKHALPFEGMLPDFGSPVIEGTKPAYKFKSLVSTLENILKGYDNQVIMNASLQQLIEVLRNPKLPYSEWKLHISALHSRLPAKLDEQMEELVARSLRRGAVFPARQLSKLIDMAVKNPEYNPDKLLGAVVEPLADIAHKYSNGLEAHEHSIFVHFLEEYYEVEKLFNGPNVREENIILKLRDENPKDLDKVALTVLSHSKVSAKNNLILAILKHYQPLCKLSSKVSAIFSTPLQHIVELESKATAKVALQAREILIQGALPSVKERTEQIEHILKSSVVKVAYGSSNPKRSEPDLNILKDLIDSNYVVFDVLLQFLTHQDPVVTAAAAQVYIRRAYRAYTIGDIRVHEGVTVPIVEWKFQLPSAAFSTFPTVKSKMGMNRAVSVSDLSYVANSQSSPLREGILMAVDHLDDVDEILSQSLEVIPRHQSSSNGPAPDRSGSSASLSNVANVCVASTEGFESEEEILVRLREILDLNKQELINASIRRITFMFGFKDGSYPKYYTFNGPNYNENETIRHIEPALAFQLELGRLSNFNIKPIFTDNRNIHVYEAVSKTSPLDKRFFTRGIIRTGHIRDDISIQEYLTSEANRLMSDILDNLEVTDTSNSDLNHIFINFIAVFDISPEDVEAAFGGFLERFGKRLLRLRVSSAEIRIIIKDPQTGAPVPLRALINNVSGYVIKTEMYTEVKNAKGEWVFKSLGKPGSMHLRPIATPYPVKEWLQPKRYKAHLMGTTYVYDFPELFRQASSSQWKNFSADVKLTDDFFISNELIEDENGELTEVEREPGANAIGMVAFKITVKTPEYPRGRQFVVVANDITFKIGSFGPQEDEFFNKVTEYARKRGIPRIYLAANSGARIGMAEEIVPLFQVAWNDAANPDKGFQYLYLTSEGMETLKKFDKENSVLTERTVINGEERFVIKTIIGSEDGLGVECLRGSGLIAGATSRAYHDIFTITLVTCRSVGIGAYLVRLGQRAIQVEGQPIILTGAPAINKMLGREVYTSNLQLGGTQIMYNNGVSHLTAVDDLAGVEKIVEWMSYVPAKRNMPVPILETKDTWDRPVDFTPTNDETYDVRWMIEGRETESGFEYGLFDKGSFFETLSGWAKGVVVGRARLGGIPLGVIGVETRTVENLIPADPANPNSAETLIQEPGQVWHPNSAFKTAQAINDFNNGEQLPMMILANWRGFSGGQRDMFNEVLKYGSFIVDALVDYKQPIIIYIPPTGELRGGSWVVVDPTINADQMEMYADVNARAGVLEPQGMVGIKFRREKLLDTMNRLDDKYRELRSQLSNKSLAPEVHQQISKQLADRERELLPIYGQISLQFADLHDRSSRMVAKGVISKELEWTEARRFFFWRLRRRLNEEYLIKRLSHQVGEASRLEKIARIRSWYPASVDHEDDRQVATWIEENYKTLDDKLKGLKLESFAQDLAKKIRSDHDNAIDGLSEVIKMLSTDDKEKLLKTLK
Sequence of human (hACC2) (O00763 whole entry): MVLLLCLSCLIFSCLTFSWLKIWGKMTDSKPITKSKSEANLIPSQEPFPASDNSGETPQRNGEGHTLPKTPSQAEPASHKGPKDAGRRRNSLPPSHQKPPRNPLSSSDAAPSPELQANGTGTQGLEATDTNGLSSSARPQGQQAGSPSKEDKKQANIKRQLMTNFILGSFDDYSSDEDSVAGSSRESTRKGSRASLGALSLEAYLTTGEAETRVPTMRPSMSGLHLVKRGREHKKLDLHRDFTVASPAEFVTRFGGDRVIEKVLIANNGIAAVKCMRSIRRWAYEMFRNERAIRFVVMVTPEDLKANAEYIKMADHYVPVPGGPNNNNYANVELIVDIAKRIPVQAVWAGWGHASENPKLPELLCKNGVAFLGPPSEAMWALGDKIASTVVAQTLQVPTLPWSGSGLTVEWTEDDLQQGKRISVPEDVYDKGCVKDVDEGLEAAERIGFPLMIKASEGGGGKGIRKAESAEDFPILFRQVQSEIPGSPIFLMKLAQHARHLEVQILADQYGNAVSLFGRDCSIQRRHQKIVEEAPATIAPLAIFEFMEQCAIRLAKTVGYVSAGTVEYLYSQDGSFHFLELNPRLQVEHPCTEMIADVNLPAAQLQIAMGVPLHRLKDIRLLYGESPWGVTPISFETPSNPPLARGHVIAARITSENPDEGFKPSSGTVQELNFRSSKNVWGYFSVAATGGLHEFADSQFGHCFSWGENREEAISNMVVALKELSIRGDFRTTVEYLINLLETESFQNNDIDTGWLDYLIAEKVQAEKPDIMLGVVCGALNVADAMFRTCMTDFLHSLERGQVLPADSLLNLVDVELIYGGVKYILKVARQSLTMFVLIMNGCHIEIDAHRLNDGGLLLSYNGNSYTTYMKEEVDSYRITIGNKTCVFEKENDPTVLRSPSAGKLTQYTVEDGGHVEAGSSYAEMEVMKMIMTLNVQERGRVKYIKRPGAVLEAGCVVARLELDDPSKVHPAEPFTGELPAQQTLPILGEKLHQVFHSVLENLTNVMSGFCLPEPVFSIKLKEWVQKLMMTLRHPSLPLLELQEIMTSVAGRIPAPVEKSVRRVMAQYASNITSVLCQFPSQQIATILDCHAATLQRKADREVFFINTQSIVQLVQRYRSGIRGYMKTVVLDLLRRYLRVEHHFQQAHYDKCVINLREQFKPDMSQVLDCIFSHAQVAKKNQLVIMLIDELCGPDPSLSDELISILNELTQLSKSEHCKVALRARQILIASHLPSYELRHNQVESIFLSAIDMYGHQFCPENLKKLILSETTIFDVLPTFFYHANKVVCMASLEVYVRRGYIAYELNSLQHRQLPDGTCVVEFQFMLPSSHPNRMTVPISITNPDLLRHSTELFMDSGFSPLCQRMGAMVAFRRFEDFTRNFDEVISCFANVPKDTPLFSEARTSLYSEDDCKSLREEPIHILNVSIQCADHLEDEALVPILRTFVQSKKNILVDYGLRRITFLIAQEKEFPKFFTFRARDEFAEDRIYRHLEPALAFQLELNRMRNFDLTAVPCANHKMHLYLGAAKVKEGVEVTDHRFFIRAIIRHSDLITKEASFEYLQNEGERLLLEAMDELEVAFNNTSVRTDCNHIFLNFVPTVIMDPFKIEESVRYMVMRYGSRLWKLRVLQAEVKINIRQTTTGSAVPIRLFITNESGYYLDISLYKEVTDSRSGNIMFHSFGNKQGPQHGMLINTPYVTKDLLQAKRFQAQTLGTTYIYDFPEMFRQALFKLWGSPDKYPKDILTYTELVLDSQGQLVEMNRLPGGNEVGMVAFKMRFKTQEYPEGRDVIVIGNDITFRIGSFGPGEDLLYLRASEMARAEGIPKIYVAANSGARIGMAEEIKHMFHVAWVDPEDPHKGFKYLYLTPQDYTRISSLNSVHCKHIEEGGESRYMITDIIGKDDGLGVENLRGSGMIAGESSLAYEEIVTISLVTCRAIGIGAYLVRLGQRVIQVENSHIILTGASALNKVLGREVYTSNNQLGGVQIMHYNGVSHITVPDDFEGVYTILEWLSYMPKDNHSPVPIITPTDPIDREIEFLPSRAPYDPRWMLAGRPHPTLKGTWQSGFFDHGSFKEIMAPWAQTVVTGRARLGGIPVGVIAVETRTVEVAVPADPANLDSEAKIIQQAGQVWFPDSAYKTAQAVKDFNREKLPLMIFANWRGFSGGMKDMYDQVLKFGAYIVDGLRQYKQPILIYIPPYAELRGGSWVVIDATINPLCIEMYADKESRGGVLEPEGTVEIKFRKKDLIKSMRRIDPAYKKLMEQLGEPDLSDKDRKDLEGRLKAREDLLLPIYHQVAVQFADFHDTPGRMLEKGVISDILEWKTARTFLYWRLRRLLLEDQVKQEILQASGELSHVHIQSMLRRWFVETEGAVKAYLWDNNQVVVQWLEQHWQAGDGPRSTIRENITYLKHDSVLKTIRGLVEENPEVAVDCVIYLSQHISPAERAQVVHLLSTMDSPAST

Row | SMILES | IC50 [1] [nM] | IC50 [2] [nM] | MIC [3] [µg/mL] | IC90 [4] [µg/mL] | IC90 [5] [µg/mL] | IC90 [6] [µg/mL] | IC90 [7] [µg/mL] | MIC [8] [µg/mL] | IC90 [9] [µg/mL] | IC90 [10] [µg/mL] | IC50 [11] [nM] | IC90 [12] [µg/mL] | IC50 [13] [nM] | MIC [14] [µg/mL] | IC90 [15] [µg/mL]
1 | O=C(c1c2ccccc2cc2ccccc12)N1CCC(N2CCC[C@@H](C(=O)N3CCOCC3)C2)CC1 [CP-640186] | ~60 | ~60 |  |  |  |  |  |  |  |  |  |  |  |  | 
2 | COc1ccc(Cl)cc1[C@H](Cn1c(=O)n(C(C)(C)C(=O)NC(C)C)c(=O)c2c(C)c(-n3nccn3)sc21)OCC(C)(C)C#N [Compound I-227] |  |  | 0.25 to 1 (≈ 0.389 to 1.56 µM) | 2 (≈ 3.11 µM) | 2 (≈ 3.11 µM) | 2 (≈ 3.11 µM) | 2 (≈ 3.11 µM) | 0.25 to 1 (≈ 0.389 to 1.56 µM) | > 50 | 2 (≈ 3.11 µM) | 10 to 40 | 2 (≈ 3.11 µM) | 1 to 5 | 1.01 to 2 (≈ 1.57 to 3.11 µM) | > 50
3 | COc1ccc(F)cc1[C@H](Cn1c(=O)n([C@H](C)C(=O)N2CCCC2)c(=O)c2c(C)c(-n3nccn3)sc21)OCCC#N [Compound I-187] |  |  | 2.01 to 4 (≈ 3.37 to 6.72 µM) | 2 (≈ 3.36 µM) | 2 (≈ 3.36 µM) | 0.4 (≈ 0.672 µM) | 0.08 (≈ 0.134 µM) | 2.01 to 4 (≈ 3.37 to 6.72 µM) | > 50 | 0.4 (≈ 0.672 µM) | 1 to 5 | 0.4 (≈ 0.672 µM) | 1 to 5 | 1.01 to 2 (≈ 1.7 to 3.36 µM) | > 50
